According to patent publication US9358281B2, “Methods, agents and peptides for inducing an innate immune response in HIV vaccination” (New York University, priority 2009, dated 2016):

Test system: monocyte-derived dendritic cells (MDDC)
Assay type: cell-based, human
Conditions: added during the first 24 hours

Row | SMILES | effect on transduction efficiency
1 | Cc1cn([C@H]2C[C@H](N=[N+]=[N-])[C@@H](CO)O2)c(=O)[nH]c1=O [AZT, Zidovudine] | inhibited transduction efficiency
2 | Cc1nnc(C(=O)NC(C)(C)c2nc(C(=O)NCc3ccc(F)cc3)c(O)c(=O)n2C)o1 [RAL, Raltegravir] | inhibited transduction efficiency
